In patent US20080293785A1, “SUBSTITUTED BENZOTHIAZOLE KINASE INHIBITORS” (priority 2006, published 2008):
Read-outs that look alike come from different tables or passages of the source.

Columns and labels:
[1] = system: HeLa cervical adenocarcinoma; test: Inhibition of cell proliferation (14C-thymidine incorporation), HeLa; format: cell-based
Description: (§1) The ability of a test compound to inhibit the proliferation of cell growth was determined by measuring incorporation of ^14C-labelled thymidine into newly synthesized DNA within the cells. This method was used on American Type Culture Collection (ATCC, Virginia) cell lines derived from carcinomas originating from several tissues such as HeLa cervical adenocarcinoma (ATCC Cat. #CCL-2), A375 malignant melanoma (ATCC Cat. #CRL-1619) and HCT-116 colon carcinoma (ATCC Cat. #CCL-247).
(§2) The carcinoma cells were trypsinized and counted. The cells (3000-8000 count) were added to each well of a 96-well CytoStar tissue culture treated scintillating microplate (Amersham #RPNQ0160) in complete medium (100 μL) and the plate was incubated in complete medium for 24 hrs at 37° C. in an […] containing 5% CO2.
Test compound (1 μL) in 100% DMSO was added to the plate test-wells with DMSO only added to control-wells. The plate is incubated in complete medium for a second 24 hr period at 37° C. in an atmosphere containing 5% CO2.
An aliquot of a solution of Methyl ^14C-thymidine (56 mCi/mmol) (NEN #NEC568 or Amersham #CFA532) in complete medium (20 uL to provide […]) was also added to each well and the plate was incubated for a third 24 hr period at 37° C. in an atmosphere containing 5% CO2.
The plate contents were discarded and the plate was washed twice with PBS (200 μL), then PBS (200 μL) was added to each well. The plate was sealed and the degree of methyl ^14C-thymidine incorporation is quantified on a Packard Top Count.
An IC50 value shown as >10 or >100 means that 50% inhibition was not observed at the highest concentration.

CDK2:Cyclin A = biological target: T1, CDK2:Cyclin A (Homo sapiens, UniProt P24941); test: CDK2 Screening Assay; format: biochemical; conditions: 10 μM ATP, biotinylated histone-H1 peptide substrate, 33P-γ-ATP FlashPlate; read-out: Kinase IC50 CDK2
T1 construct: purchased Upstate Biotech, Lake Placid, N.Y
Description: (§3) A kinase reaction mixture was prepared containing 50 mM Tris.HCl pH=8, 10 mM MgCl2, 0.1 mM Na3PO4, 1 mM DTT, 10 μM ATP, 0.025 μM biotinylated histone-H1 peptide substrate and 0.2 μCuries per well ^33P-γ-ATP (2000-3000 Ci/mmol). 70 μL of the kinase reaction mixture was dispensed into the well of a streptavidin coated FlashPlate™ (Cat. # SMP103, NEN, Boston, Mass.). Then 1 μL of test compound stock in 100% DMSO was added to the wells resulting in a final concentration of 1% DMSO in the reaction well with a 100 μL final reaction well volume.
(§4) The CDK2:Cyclin A protein was diluted in 50 mM Tris.HCl pH=8.0, 0.1% BSA at a concentration of 1 ng per μL and 30 μL (30 ng enzyme per test well) was added to each well to initiate the reaction. The reaction was incubated for one hour at 30° C. At the end of the one hour incubation, the reaction was terminated by aspirating the mixture from the plate and washing the wells twice with PBS containing 100 mM EDTA. The histone-H1 biotinylated peptide substrate became immobilized on the Flashplate™ and the incorporation of ^33P-γ-ATP was measured by reading the plate on a scintillation counter. Inhibition of the enzymatic activity of CDK2 was measured by observing a reduced amount of ^33P-γ-ATP incorporated into the immobilized peptide.
The CDK2 kinase used was complexed with cyclin A and is commercially available (Upstate Biotech, Lake Placid, N.Y.).
(§5) An IC50 listed as >0.1, >1, >10 or >100 means no observed 50% inhibition at the indicated test concentration. […] ND means the compound was not tested in the assay specified.

VEGF-R2 kinase domain = VEGF-R2 kinase domain (Rattus norvegicus, UniProt O08775); test: VEGF-R2 Screening Assay; format: biochemical; conditions: 10 μM ATP, biotinylated PLC1 peptide substrate, 33P-γ-ATP FlashPlate; read-out: Kinase IC50 VEGFR
VEGF-R2 kinase domain, sequence (O08775 786-1343): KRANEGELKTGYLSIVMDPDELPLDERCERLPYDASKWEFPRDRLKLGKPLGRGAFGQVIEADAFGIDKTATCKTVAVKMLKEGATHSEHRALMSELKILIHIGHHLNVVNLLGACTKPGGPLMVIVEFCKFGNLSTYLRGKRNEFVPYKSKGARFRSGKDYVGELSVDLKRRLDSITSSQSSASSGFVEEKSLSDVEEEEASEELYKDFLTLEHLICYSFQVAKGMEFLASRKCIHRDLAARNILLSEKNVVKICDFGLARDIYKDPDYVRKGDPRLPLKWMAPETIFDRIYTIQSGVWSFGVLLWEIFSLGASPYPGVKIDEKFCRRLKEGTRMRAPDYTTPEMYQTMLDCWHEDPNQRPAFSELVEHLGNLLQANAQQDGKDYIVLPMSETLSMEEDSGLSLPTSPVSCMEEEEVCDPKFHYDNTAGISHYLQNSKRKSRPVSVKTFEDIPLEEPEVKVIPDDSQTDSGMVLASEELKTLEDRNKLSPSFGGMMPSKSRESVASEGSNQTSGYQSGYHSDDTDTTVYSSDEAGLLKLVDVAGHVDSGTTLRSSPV
Description: as §3, with “biotinylated” for “biotinylated histone-H1”, “0.8” for “0.2”
The soluble rat tyrosine kinase containing an N-terminal 6×HIS tag was diluted in 50 mM Tris.HCl pH=8.0, 0.1% BSA at a concentration of 5 ng per μL and 30 μL (150 ng enzyme per test well) was added to each well to initiate the reaction. The reaction was incubated for one hour at 30° C. At the end of the one hour incubation, the reaction was terminated by aspirating the reaction mixture from the plate and washing the wells twice with PBS containing 100 mM EDTA. The PLC1 biotinylated peptide substrate became immobilized on the Flashplate™ and the incorporation of ^33P-γ-ATP was measured by reading the plate on a scintillation counter. Inhibition of the enzymatic activity of the VEGF-R was measured by observing a reduced amount of ^33P-γ-ATP incorporated into the immobilized peptide.
The VEGF-R kinase assay was carried out using the CDK kinase assay procedure except that the enzyme was replaced with the VEGF-R2 fusion protein containing a polyhistidine tag at the N-terminus followed by amino acids 786-1343 of the rat VEGF-R2 kinase domain (GenBank Accession #U93306).
as §5

CDK1:Cyclin-B = biological target: T2, CDK1:Cyclin-B (Homo sapiens, UniProt P06493); test: CDK1 Screening Assay; format: biochemical; conditions: 10 μM ATP, biotinylated histone-H1 peptide substrate, 33P-γ-ATP FlashPlate; read-out: Kinase IC50 CDK1
T2 construct: purchased New England Biolabs, Beverly, Mass; 6020; host or cells: insect cells
T2 sequence (P06493 whole entry): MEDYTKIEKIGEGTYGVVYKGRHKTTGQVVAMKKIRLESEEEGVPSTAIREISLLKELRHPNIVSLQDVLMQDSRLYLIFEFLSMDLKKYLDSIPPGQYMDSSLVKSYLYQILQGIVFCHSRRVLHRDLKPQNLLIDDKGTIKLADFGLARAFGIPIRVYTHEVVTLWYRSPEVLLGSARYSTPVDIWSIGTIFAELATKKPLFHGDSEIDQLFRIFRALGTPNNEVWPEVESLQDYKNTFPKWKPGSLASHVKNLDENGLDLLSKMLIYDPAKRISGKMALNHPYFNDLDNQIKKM
T2 sequence (P14635 whole entry partner): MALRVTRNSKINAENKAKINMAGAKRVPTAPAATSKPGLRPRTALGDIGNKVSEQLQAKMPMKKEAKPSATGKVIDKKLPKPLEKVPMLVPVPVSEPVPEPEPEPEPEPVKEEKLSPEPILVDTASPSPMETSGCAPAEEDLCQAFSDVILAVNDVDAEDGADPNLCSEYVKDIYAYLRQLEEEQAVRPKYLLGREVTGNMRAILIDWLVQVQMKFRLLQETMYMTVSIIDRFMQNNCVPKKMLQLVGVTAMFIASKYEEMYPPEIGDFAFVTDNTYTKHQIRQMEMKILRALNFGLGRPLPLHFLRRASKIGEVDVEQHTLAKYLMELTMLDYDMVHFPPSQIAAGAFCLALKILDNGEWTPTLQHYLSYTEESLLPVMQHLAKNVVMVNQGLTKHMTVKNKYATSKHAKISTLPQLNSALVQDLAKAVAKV
Description: as §3
as §4, with “CDK1:Cyclin-B” for “CDK2:Cyclin A”, “CDK1” for “CDK2”
The CDK1 kinase used was isolated from insect cells expressing both the human CDK1 catalytic subunit and its positive regulatory subunit cyclin B (New England Biolabs, Beverly, Mass., Cat. # 6020).
as §5

HCT-116 colon carcinoma = test: Inhibition of cell proliferation (14C-thymidine incorporation), HCT116; format: cell-based; conditions: Homo sapiens, HCT116, 14C-thymidine incorporation
Description: as §1, §2
(§6) Test compound (1 μL) in 100% DMSO was added to the plate test-wells with DMSO only added to control-wells. The plate is incubated in complete medium for a second 24 hr period at 37° C. in an atmosphere containing 5% CO2. […]
(§7) The plate contents were discarded and the plate was washed twice with PBS (200 μL), then PBS (200 μL) was added to each well. The plate was sealed and the degree of methyl ^14C-thymidine incorporation is quantified on a Packard Top Count. […]

A375 malignant melanoma = test: Inhibition of cell proliferation (14C-thymidine incorporation), A375; format: cell-based; conditions: Homo sapiens, A-375; A375, 14C-thymidine incorporation
Description: as §1, §2, §6, §7

| IC50 (CDK2:Cyclin A) [µM] | IC50 (VEGF-R2 kinase domain) [µM] | IC50 (CDK1:Cyclin-B) [µM] | IC50 ([1]; Homo sapiens) [µM] | IC50 (HCT-116 colon carcinoma) [µM] | IC50 (A375 malignant melanoma) [µM] | Compound | IC50 [1] [µM] |
| --- | --- | --- | --- | --- | --- | --- | --- |
| > 100 | > 100 | > 100 | > 100 |  |  | O=C(Nc1ccc2nc(Nc3ccccc3)sc2c1)Nc1c(F)cccc1F [Cpd 2, 1-(2,6-difluoro-phenyl)-3-(2-phenylamino-benzothiazol-6-yl)-urea] |  |
| > 100 | > 100 | > 100 | > 10 |  |  | O=C(Nc1ccccc1)Nc1cccc2nc(Nc3ccccc3)sc12 [Cpd 3, 1-phenyl-3-(2-phenylamino-benzothiazol-7-yl)-urea] |  |
| > 100 | > 100 | > 100 | > 10 |  |  | O=C(Nc1ccc(Cl)c(Cl)c1)Nc1cccc2nc(Nc3ccccc3)sc12 [Cpd 4, 1-(3,4-dichloro-phenyl)-3-(2-phenylamino-benzothiazol-7-yl)-urea] |  |
| > 100 | > 100 | > 100 | > 10 |  |  | O=C(Nc1ccccc1)Nc1cccc2sc(Nc3ccccc3)nc12 [Cpd 5, 1-phenyl-3-(2-phenylamino-benzothiazol-4-yl)-urea] |  |
| 5.76 | > 100 | > 100 | 72.7 |  |  | O=C(Nc1c(F)cccc1F)Nc1cccc2sc(Nc3ccccc3)nc12 [Cpd 6, 1-(2,6-difluoro-phenyl)-3-(2-phenylamino-benzothiazol-4-yl)-urea] |  |
| 0.156 | 4.58 | 1.55 | 20.6 | 5.04 | 10.4 | Cc1ccc(F)c(C(=O)Nc2cccc3sc(Nc4ccccc4)nc23)c1F [Cpd 48, 2,6-difluoro-3-methyl-N-(2-phenylamino-benzothiazol-4-yl)-benzamide] |  |
| > 100 | > 100 | > 100 |  |  |  | Cc1ccc(F)c(C(=O)N(C)c2cccc3sc(Nc4ccccc4)nc23)c1F [Cpd 62, 2,6-difluoro-3,N-dimethyl-N-(2-phenylamino-benzothiazol-4-yl)-benzamide] |  |

| Compound | IC50 (CDK2:Cyclin A) [µM] | IC50 (VEGF-R2 kinase domain) [µM] | IC50 (CDK1:Cyclin-B) [µM] | IC50 ([1]; Homo sapiens) [µM] | IC50 (HCT-116 colon carcinoma) [µM] | IC50 (A375 malignant melanoma) [µM] | IC50 [1] [µM] |
| --- | --- | --- | --- | --- | --- | --- | --- |
| 1-(2,6-difluoro-phenyl)-3-(2-phenylamino-benzothiazol-7-yl)-urea [Cpd 1] | > 100 | ~100 | > 100 |  |  |  | > 10 |
